From patent US12540164B2, “Peptides for treatment and prevention of nonalcoholic fatty liver disease and fibrosis” (UNIVERSITE DE STRASBOURG, priority 2017, dated 2026)
Entries after “also recorded” stand apart in the source; their conditions may differ. Ends that are not written are not given here.

Experiments:
Type in all cases: in vivo
hepatic lipid droplets = assay: AdipoRed staining of liver sections (lipid droplets); details: 3 months after one unique injection in adipose tissue; DIO male mice; AdipoRed/DAPI cryosections
Procedure: Mice presented were euthanized and their plasma and organs were sampled for analysis. […] Cryosection of the livers were then stained with Adipored and DAPI to detect the level of lipid droplets. […] Hepatic function is assessed by two liver related strong biomarkers namely (AST (Aspartate Aminotransferase) and ALT (Alanine Aminotransferase)), whose levels increase proportionately with liver damage.
Livers were isolated and briefly washed in PBS buffer (pH 7.4). after weighing the dried liver, for the liver to body weight ratio, a sliced sample of the liver were then placed in 4% paraformaldehyde (in 0.1M sodium phosphate buffer, pH 7.2) for 15 min, washed in PBS and incubated in AdipoRed dye (1/25; Lonza, Switzerland) with 30 μM DAPI (Sigma-Aldrich, USA) for 15 minutes. After 3 washes with PBS samples were mounted on slides and pictures were taken using Zeiss microscope.

LOXL2 [1] = assay: LOXL2 ELISA on liver extracts; details: 3 months post unique injection in subcutaneous adipose tissue, DIO male mice, n=4
Source text: LOXL2 is the enzyme promoting the development of fibrotic lesions by favoring the polymerization of collagen and FABP4 is a protein involved in lipid metabolism whose level increases with increasing lipid deposition in the liver.
(§1) For LOXL2 and GLP-1 measurements, the two commercially available kits: Lysyl Oxydase Like Protein 2 (LOXL2), Enzyme-linked Immunosorbent Assay Kit, Mus musculus, SEF552Mu, Cloud Clone Corp;
For the measurements on the liver extracts, the same kit for LOXL2 was used and for FABP4, the commercial kit used was the Elisa kit for Fatty Acid Binding Protein 4, Adipocyte (FABP4), SEB693Mu, Cloud Clone Corp.

Collagen IV = assay: Immunostaining of liver cryosections for Collagen IV (DIO-NASH); details: DIO-NASH mice, 3 months after injection in subcutaneous adipose tissue; vs untreated
Procedure: For immunofluorescence experiments, liver and kidneys freshly sampled were included in Optimal Cutting Temperature Compound™ (OCT™, Catalog #4583, Tissue-Tek® OCT™, Sakura® Finetek, Torrance, California, USA) and cryosections of 7 μm were cut with Cryostat Leica CM1950. Cryosections were washed with 1×PBS and fixated in 4% formaldehyde solution for 15 min (Catalog #: F555-4L, Sigma-Aldrich, Saint-Louis, Missouri, USA) and then permeabilized with 0.02% SDS-PBS for 30 seconds. Blocking solution was 5%-Bovine Serum Albumin (BSA) in PBS. Primary antibodies were diluted in blocking solution and incubated overnight and indicated secondary antibodies were diluted in PBS for 30 minutes. Nuclei were counterstained with Hoechst (Catalog #: D1306, Invitrogen, Carlsbad, California, USA). Slides were then mounted with Vectashield® Mounting Medium (Catalog #: H-1000, Vector Laboratories, Burlingame, California, USA). Images were acquired and analyzed with Zeiss Imager.Z2 microscope equipped with either Zeiss AxioVision or Zeiss ZEN 2012 software (Carl Zeiss Inc., Oberkochen, Germany). Anti-Collagen IV antibody, ab6586 from Abcam and LOXL2 antibody, GTX105085 from GeneTex were used.

LOXL2 [2] = assay: Circulating (plasma) LOXL2 ELISA; details: 3 months post a unique injection; DIO-NASH mice
Source text: as §1

ALT = assay: STAM model of non-alcoholic steatohepatitis: plasma biochemistry (ALT); details: STAM NASH mice, 25 μg per mouse SC once weekly 4-9 wks of age, sacrifice 9 wks; n = 6
Procedure: NASH was induced in 12 male mice by a single subcutaneous injection of 200 μg streptozotocin (STZ, Sigma-Aldrich, USA) solution 2 days after birth and feeding with high fat diet (HFD, 57 kcal % fat, Cat #HFD32, CLEA Japan, Inc., Japan) after 4 weeks of age. The peptide was administered subcutaneously in the adipose tissue in a volume of […] per mouse. The peptide was administered at a dose of 25 microgram (μg) per mouse once weekly. For plasma biochemistry, non-fasting blood was collected in polypropylene tubes with anticoagulant (Novo-Heparin, Mochida Pharmaceutical Co. Ltd., Japan) and centrifuged at 1,000×g for 15 minutes at 4° C. The supernatant was collected and stored at −80° C. until use. Plasma ALT level was measured by FUJI DRI-CHEM 7000 (Fujifilm, Japan). Six NASH mice were subcutaneously in the adipose tissue administered vehicle supplemented with ADPIF peptide at a dose of […] per mouse once weekly from 4 to 9 weeks of age.

[3] = STAM model of non-alcoholic steatohepatitis: liver triglyceride content; details: STAM NASH mice
Procedure: NASH was induced in 12 male mice by a single subcutaneous injection of 200 μg streptozotocin (STZ, Sigma-Aldrich, USA) solution 2 days after birth and feeding with high fat diet (HFD, 57 kcal % fat, Cat #HFD32, CLEA Japan, Inc., Japan) after 4 weeks of age.
The peptide was administered subcutaneously in the adipose tissue in a volume of […] per mouse.
The peptide was administered at a dose of 25 microgram (μg) per mouse once weekly.
Liver total lipid-extracts were obtained by Folch's method (Folch J. et al., J. Biol. Chem. 1957; 226: 497). Liver samples were homogenized in chloroform-methanol (2:1, v/v) and incubated overnight at room temperature. After washing with chloroform-methanol-water (8:4:3, v/v/v), the extracts were evaporated to dryness, and dissolved in isopropanol. Liver triglyceride content was measured by Triglyceride E-test (Wako Pure Chemical Industries, Ltd., Japan).
Six NASH mice were subcutaneously in the adipose tissue administered vehicle supplemented with ADPIF peptide at a dose of […] per mouse once weekly from 4 to 9 weeks of age.

[4] = STAM model of non-alcoholic steatohepatitis: Sirius red staining, fibrosis area; details: STAM NASH mice
Procedure: NASH was induced in 12 male mice by a single subcutaneous injection of 200 μg streptozotocin (STZ, Sigma-Aldrich, USA) solution 2 days after birth and feeding with high fat diet (HFD, 57 kcal % fat, Cat #HFD32, CLEA Japan, Inc., Japan) after 4 weeks of age. The peptide was administered subcutaneously in the adipose tissue in a volume of […] per mouse. The peptide was administered at a dose of 25 microgram (μg) per mouse once weekly. To visualize collagen deposition, Bouin's fixed liver sections were stained using picro-Sirius red solution (Waldeck, Germany). For quantitative analysis of fibrosis area, bright field images of Sirius red-stained sections were captured around the central vein using a digital camera (DFC295; Leica, Germany) at 200-fold magnification, and the positive areas in 5 fields/section were measured using ImageJ software (National Institute of Health, USA). Six NASH mice were subcutaneously in the adipose tissue administered vehicle supplemented with ADPIF peptide at a dose of […] per mouse once weekly from 4 to 9 weeks of age.

[5] = 25 μg per mouse SC once weekly 4-9 wks of age, sacrifice 9 wks, n = 6
[6] = 25 μg per mouse SC once weekly 4-9 wks, Student's t-test

## VECTTREKEVLASLDKAAFLTQLHS (not fully specified (bridges)) [ADPIF, R and S carry the stapling, preferably 2-(7-octenyl)arginine and 2-(4-pentenyl)serine]
Hepatic lipid droplets
  size of the hepatic lipid droplets: clearly showed a decrease; also recorded: global decrease in the sizes of the lipid droplets; also recorded: decrease in the diameter of the lipid droplets
LOXL2 [1]
  hepatic protein content of LOXL2: more potent than PATAD; also recorded: significant decrease
Collagen IV
  Collagen IV expression in liver (immunostaining): effective in preventing the progression of fibrotic markers; also recorded: reduced
LOXL2 [2]
  circulation (plasma) levels of LOXL2: significantly reduced; also recorded: reduced the LOXL2 levels by half
ALT
  Plasma ALT (mean ± SD): 54 ± 9 U/L
[3]; [5]
  Liver triglyceride (mean ± SD): 35.1 ± 17.8 mg/g liver
[3]; [6]
  liver triglyceride content compared with the Vehicle group: significant decrease
[4]; [5]
  Sirius red-positive area (mean ± SD): 0.62 ± 0.17%
[4]; [6]
  fibrosis area (Sirius red-positive area) compared with the Vehicle group: significant decrease
